Test results from patent US20060099157A1, “Ether alcohols used as solvents and emulsifiers and dispersions containing said ether alcohols” (IFAC GmbH & Co. KG, priority 2002, published 2006).

Experiments:
[1] = Solution in polyethylene glycol monomethyl ether (7 EO); type: physicochemical; conditions: dissolved in polyethylene glycol monomethyl ether (7 EO), room temperature, based on the total solution
Description: A solution was accessible which, based on the total solution, comprised 60% by weight of the light protection agent.
The light protection agent 2-hydroxy-4-methoxybenzophenone (benzophenone-3) could be dissolved at room temperature in polyethylene glycol monomethyl ether (7 EO), the fraction of light protection agent in the solution being more than 30% by weight.
2-Hydroxy-4-methoxybenzophenone-5-sulfonic acid could be dissolved in polyethylene glycol monomethyl ether (7 EO), the resulting solution comprising more than 10% by weight of the light protection agent. The per se water-soluble light protection agent could be introduced into an oil phase as polyethylene glycol monomethyl ether (7 EO) solution so that it could be used in this formulation as oil-soluble light protection filter.
(§1) Salicylic acid was dissolved at room temperature in polyethylene glycol monomethyl ether (7 EO). A solution was accessible which comprised more than 10% by weight of salicylic acid in the acid form. The solution could be introduced in any fractions into C12-C15-alcohol benzoate without resulting in precipitation of the salicylic acid.

[2] = Mixing of the ether alcohol solution into C12-C15-alcohol benzoate, stability of the resulting system; type: physicochemical; conditions: for miscibility of the solution with C12-C15-alcohol benzoate: solution in polyethylene glycol monomethyl ether (7 EO)
Experimental: At room temperature (25° C.), a storage time of more than 7 days was determined without resulting in flocculation or phase separation.
as §1

[3] = cited from earlier work

Row | Compound | fraction of the compound in the accessible solution [1] | storage time without flocculation or phase separation ([2]; 60% strength solution in C12-C15-alcohol benzoate, room temperature (25° C.)) | miscibility of the solution with C12-C15-alcohol benzoate [2] | fraction of light protection agent in solutions hitherto accessible [3]
1 | CCCCC(CC)COC(=O)c1ccc(Nc2nc(Nc3ccc(C(=O)OCC(CC)CCCC)cc3)nc(Nc3ccc(C(=O)OCC(CC)CCCC)cc3)n2)cc1 (centres unmarked) [2,4,6-trianilino-p-(carbo-2′-ethylhexyl-1′-oxy)-1,3,5-triazine] | 60 % by weight | more than 7 days | any mixing ratios | 
2 | COc1cc(O)c(C(=O)c2ccccc2)cc1S(=O)(=O)O [2-Hydroxy-4-methoxybenzophenone-5-sulfonic acid] | more than 10 % by weight |  |  | 
3 | COc1ccc(C(=O)c2ccccc2)c(O)c1 [2-hydroxy-4-methoxybenzophenone] | more than 30 % by weight |  |  | at most 20 % by weight
4 | O=C(O)c1ccccc1O [Salicylic acid, reference compound] | more than 10 % by weight |  | any fractions | 
